Results: patent publication EP2679243B1, “Co-precipitate of one or more stilbene polyphenols in lamellar anionic solids, it's applications and related preparation method” (Fioretti, Bernard, priority 2012, dated 2014)
Values after ≈ are worked out from the molar mass of the structure shown.

Key:
[1] = cited from earlier work
[2] = Solubility in gastric fluid (indirect weighing and UV dosage); format: physicochemical; settings: gastric fluid (FU; fluid mimicking the gastric fluid), simulated gastric fluid, thermodynamic from solid, gastric fluid pH 1.2, FU
Experimental: Solution 1is prepared by dissolving 258.3 mg of AlCl3 * 6H2O and 508.3 mg of MgCl2 * 6H2O in 18 mL of deionized water. […] A hydro-alcoholic solution is obtained by mixing the first and second solution and keeping it in a dark environment, agitated and in nitrogen flow. To this solution, under nitrogen flow, it has to be added 10 ml of NaOH solution 1 M up to a pH between 10-11. Solid precipitated is left to be digested for 15 minutes and then it is separated through centrifugation. The solid recovered, has to be washed 2 times using 30 ml of deionized water and finally using 20 ml of ethanol. Finally the solid recovered is dryed out at 50 °C. […] Width of signals is due to low crystallinity of hydrotalcitic matrix that can be ascribed to an amorphous phase. […] The presence of resveratrol is confirmed by DTA signal (black trace) in which it is possible to observe a sequence of exhotermic processes due to resveratrol degradation. […] Little changes are observed after a 120 minute irradiation at 340 nm (Figure 3C. black trace: not irradiated; red trace: irradiated). […] Dissolution tests in fluids mimicking the gastric fluid (pH: 1-2, FU) at 37 °C, stirred and characterized by a blade rotation speed equal to 60 rotation/min in not sink conditions.

[3] = cited from earlier work; remark: listed apart in the source
[4] = Photostability under irradiation at 340 nm (absorption spectra); format: physicochemical
Excerpt: • Figure 1. Characterization of the product obtained from the co-precipitation process according to the invention described in example 1. […] Figure 1B. The thermogravimetric analysis defines weight percentage of resveratrol load in co-precipitate. […] Characterization of the product obtained from the co-precipitation process according to the invention described in example 2. Figure 2A. […] Figure 2B. The thermogravimetric analysis to calculate weight percentage of resveratrol in co-precipitate. […] Figure 2C. […] Samples are prepared in aqueous solution. […] Column Luna Phenomenex RP-18, eluents A)-H2O + TFA 0.1% e B- MeCN (Gradient: 5min: 5% B; 20 min: until 95% B; 5 min: up to 5% B, Temperature: 25°C, flow speed of eluent 1.0 mL/min, detector: DAD (190-400 nm)) • Figure 3. […] A) Absorption spectrum of crystalline resveratrol. […] The dissolution rate is measured to acid gastric buffer (pH 1.2, XII italian FU) in non-sink condition at a temperature of 37°C and while being agitated (agitation 60 rotation/minute).
Solution 1is prepared by dissolving 258.3 mg of AlCl3 * 6H2O and 508.3 mg of MgCl2 * 6H2O in 18 mL of deionized water. […] A hydro-alcoholic solution is obtained by mixing the first and second solution and keeping it in a dark environment, agitated and in nitrogen flow. To this solution, under nitrogen flow, it has to be added 10 ml of NaOH solution 1 M up to a pH between 10-11. […]

[5] = compared to resveratrol; cited from earlier work

| solubility [2] | photostability ([4]; aqueous solution, 30 minute irradiation at 340 nm) | photostability ([4]; solid, 60 minute irradiation at 340 nm) | Compound | pKa [1] | solubility in water [3] | maximum plasma peak [5] |
| --- | --- | --- | --- | --- | --- | --- |
| 44 µg/mL (≈ 193 µM) | photo-instability | photo-degraded | Oc1ccc(/C=C/c2cc(O)cc(O)c2)cc1 [resveratrol, trans-resveratrol] | ~10 | about 30 mg/l |  |
|  |  |  | resveratrol-L-arginine salt |  |  | increased |
